Measured values reported in article PMC4079055 (The New England journal of medicine, 2014).
Like-named read-outs stand apart in the source and are kept apart here.

Columns and labels:
[1] = test system: ALK-rearranged NSCLC xenograft; details: crizotinib-sensitive and crizotinib-resistant tumors; cited from earlier work
[2] = Phase 1 study of oral ceritinib: safety, dose-limiting toxic events, MTD; type: in vivo
clinical = details: human, in vivo
MET = details: cited from earlier work
ALK-rearranged NSCLC = test: Phase 1 study: antitumor activity; type: in vivo, human
ALK = details: enzymatic assays; cited from earlier work
[3] = cited from earlier work
[4] = at least 400 mg daily, 114 patients with NSCLC

Cc1cc(Nc2ncc(Cl)c(Nc3ccccc3S(=O)(=O)C(C)C)n2)c(OC(C)C)cc1C1CCNCC1 [Ceritinib]
Antitumor activity in xenograft models [1]: marked antitumor activity | Treatment-related deaths ([2]; all 130 patients): No treatment-related deaths occurred | Any event, grade 3 or 4, suspected to be related ([2]; human, in vivo): 64 (49) number of patients with event (percent) | Diarrhea, grade 3 or 4, suspected to be related ([2]; human, in vivo): 9 (7) number of patients with event (percent) | Dose-limiting toxic events ([2]; human, in vivo): diarrhea (at a daily dose of ≥600 mg), vomiting (at 750 mg daily), nausea (at 750 mg daily), dehydration (at 600 mg daily), elevated alanine aminotransferase level (at 400 mg daily), and hypophosphatemia (at 400 mg daily) | Elevated alanine aminotransferase level, grade 3 or 4, suspected to be related ([2]; human, in vivo): 27 (21) number of patients with event (percent) | Elevated amylase level, grade 3 or 4, suspected to be related ([2]; human, in vivo): 3 (2) number of patients with event (percent) | Elevated aspartate aminotransferase level, grade 3 or 4, suspected to be related ([2]; human, in vivo): 14 (11) number of patients with event (percent) | Elevated blood alkaline phosphatase level, grade 3 or 4, suspected to be related ([2]; human, in vivo): 3 (2) number of patients with event (percent) | Elevated lipase level, grade 3 or 4, suspected to be related ([2]; human, in vivo): 9 (7) number of patients with event (percent) | Fatigue, grade 3 or 4, suspected to be related ([2]; human, in vivo): 6 (5) number of patients with event (percent) | Hyperglycemia, grade 3 or 4, suspected to be related ([2]; human, in vivo): 3 (2) number of patients with event (percent) | Hypophosphatemia, grade 3 or 4, suspected to be related ([2]; human, in vivo): 4 (3) number of patients with event (percent) | Incidence of grade 3 or 4 nausea ([2]; human, in vivo): 5% | Median duration of treatment interruption ([2]; human, in vivo): 7.3 days | Nausea, grade 3 or 4, suspected to be related ([2]; human, in vivo): 7 (5) number of patients with event (percent) | Study drug permanently discontinued owing to an adverse event ([2]; human, in vivo): 6% | Vomiting, grade 3 or 4, suspected to be related ([2]; human, in vivo): 6 (5) number of patients with event (percent) | Cases of interstitial lung disease possibly related to therapy ([2]; in vivo): four | Dose-limiting toxic events ([2]; in vivo): diarrhea, vomiting, dehydration, elevated aminotransferase levels, and hypophosphatemia | Maximum tolerated dose (MTD) ([2]; oral, once daily, dose-escalation phase, 59 patients): 750 mg daily | Day by which steady-state levels were achieved (clinical): ~15 days | Increase in Cmax in relation to dose (clinical): slightly greater than proportional to the dose | half-life (clinical; 750 mg): ~40 h | Mean (±SD) area under the plasma concentration–time curve over a 24-hour period (clinical; po): 16,500±4750 ng per milliliter per hour | Mean Cmax (clinical; po): 800±205 ng per milliliter | Time at which Cmax was achieved after receipt of the dose (clinical; po, 750 mg): approximately 6 hours | Inhibition of the kinase activity of MET (MET): does not inhibit | Overall response rate (ALK-rearranged NSCLC; 750 mg daily, 78 patients with NSCLC, 95% CI 47 to 70): 59% | Tumor regression by molecular status (ALK-rearranged NSCLC; 19 crizotinib-resistant patients with repeat biopsy): Tumor regression was observed in all the patients | Median progression-free survival (ALK-rearranged NSCLC; 50 patients without central nervous system metastases, ≥400 mg daily): 7.0 months | Patients with confirmed partial response (ALK-rearranged NSCLC; 50 to 300 mg daily, 8 patients with NSCLC): 2 patients | Median progression-free survival (ALK-rearranged NSCLC; 64 patients with central nervous system metastases at baseline, ≥400 mg daily): 6.9 months | Median duration of response (ALK-rearranged NSCLC; 66 responders, at least 400 mg daily, 95% CI 6.9 to 11.4): 8.2 months | Patients with duration of response of 6 months or longer (ALK-rearranged NSCLC; 66 responders, at least 400 mg daily, 95% CI 50 to 74): 64% | Median progression-free survival (ALK-rearranged NSCLC; 80 patients who had previously received crizotinib, 400 to 750 mg daily, 95% CI 5.3 to 8.8): 6.9 months | Median progression-free survival (ALK-rearranged NSCLC; 114 patients with NSCLC, at least 400 mg daily, 95% CI 5.6 to 9.5): 7.0 months | Confirmed complete response (ALK-rearranged NSCLC; [4]): 1% | Confirmed partial response (ALK-rearranged NSCLC; [4]): 57% | Progressive disease on the first restaging scans (ALK-rearranged NSCLC; [4]): 11% | Stable disease (ALK-rearranged NSCLC; [4]): 22% | Overall response rate (ALK-rearranged NSCLC; at least 400 mg daily, 114 patients with NSCLC, 95% CI 48 to 67): 58% | Median overall survival (ALK-rearranged NSCLC; data immature, 72% censored): had not been reached | Overall response rate (ALK-rearranged NSCLC; no previous crizotinib, at least 400 mg daily, 34 patients, 95% CI 44 to 78): 62% | Patients with confirmed responses (ALK-rearranged NSCLC; of 7 crizotinib-resistant patients with ALK gene amplification or mutation): 6 patients | Patients with confirmed responses (ALK-rearranged NSCLC; of 12 crizotinib-resistant patients without ALK alteration): 7 patients | Reduction in tumor burden on computed tomographic scans (ALK-rearranged NSCLC; one patient with crizotinib-resistant disease, after 6 weeks of treatment): 52% | Responses in untreated central nervous system lesions (ALK-rearranged NSCLC; patients who had received crizotinib previously): responses were seen in untreated lesions in the central nervous system | Overall response rate (ALK-rearranged NSCLC; previously treated with crizotinib, 400 mg or more daily, 80 patients, 95% CI 45 to 67): 56% | Overall response rate (ALK-rearranged NSCLC; previously treated with crizotinib, 750 mg daily, 50 patients, 95% CI 41 to 70): 56% | Potency against ALK relative to crizotinib (ALK): 20 times

C[C@@H](Oc1cc(-c2cnn(C3CCNCC3)c2)cnc1N)c1c(Cl)ccc(F)c1Cl [crizotinib]
Incidence of grade 3 or 4 nausea [3]: 1% | Patients with drug-related diarrhea of grade 3 or 4 ([3]; of 321 patients): 0 patients
